Measurements taken from patent US20220128542A1, “TREATMENT EFFICIENCY EVALUATION” (TX MEDIC AB, priority 2019, published 2022).
Marks after values point to notes of the source that are not given here.

Test system: brain of rats subjected to severe traumatic brain injury (sTBI)
Assay: HPLC of purine-pyrimidine metabolites (energy state, oxidative/nitrosative stress) in brain after sTBI (Example 1)
Assay type: in vivo, rat
Conditions: sacrifice day 7
Protocol: They were divided into three groups:
1) n=6 animals subjected to sTBI, with drug administration after 30 minutes and sacrifice at 2 days post-TBI (Acute phase 1)
2) n=6 animals subjected to sTBI, with drug administration after 30 minutes and sacrifice at 7 days post-TBI (Acute phase 2).
3) n=6 animals subjected to sTBI, with drug administration after 3 days and sacrifice at 7 days post-TBI (Chronic phase).
The drug treatment was a subcutaneous injection of 0.5 ml of LMW-DS (15 mg/kg) and administered according to the aforementioned schematic protocol.
After the wet weight (w.w.) determination, tissue preparation was affected as previously disclosed (Tavazzi et al., Neurosurgery. 2005; 56: 582-589; Vagnozzi et al., Neurosurgery. 2007; 61: 379-388; Tavazzi et al., Neurosurgery. 2007; 61: 390-395; Amorini et al., J Cell Mol Med. 2017; 21: 530-542.). Briefly, whole brain homogenization was performed with 7 ml of ice-cold, nitrogen-saturated, precipitating solution composed by CH3CN+10 mM KH2PO4, pH 7.40, (3:1; v:v), and using an Ultra-Turrax set at 24,000 rpm/min (Janke & Kunkel, Staufen, Germany). After centrifugation at 20,690×g, for 10 min at 4° C., the clear supernatants were saved, pellets were supplemented with 3 ml of the precipitating solution and homogenized again as described above. A second centrifugation was performed (20,690×g, for 10 min at 4° C.), pellets were saved, supernatants combined with those previously obtained, extracted by vigorous agitation with a double volume of HPLC-grade CHCl3 and centrifuged as above. The upper aqueous phases containing water-soluble low-molecular weight compounds were collected, subjected to chloroform washings for two more times (this procedure allowed the removal of all the organic solvent and of any lipid soluble compound from the buffered tissue extracts), adjusted in volumes with 10 mM KH2PO4, pH 7.40, to have ultimately aqueous 10% tissue homogenates and saved at −80° C. until assayed.
Aliquots of each deproteinized tissue samples were filtered through a 0.45 μm HV Millipore filter and loaded (200 μl) onto a Hypersil C-18, 250×4.6 mm, 5 μm particle size column, provided with its own guard column (Thermo Fisher Scientific, Rodano, Milan, Italy) and connected to an HPLC apparatus consisting of a Surveyor System (Thermo Fisher Scientific, Rodano, Milan, Italy) with a highly sensitive diode array detector (equipped with a 5 cm light path flow cell) and set up between 200 and 300 nm wavelength. Data acquisition and analysis were performed by a PC using the ChromQuest® software package provided by the HPLC manufacturer.
Metabolites belonging to the purine-pyrimidine profiles (listed below) and related to tissue energy state, mitochondrial function and relative to oxidative-nitrosative stresses were separated, in a single chromatographic run, according to slight modifications of existing ion-pairing HPLC methods (Lazzarino et al., Anal Biochem. 2003; 322: 51-59; Tavazzi et al., Clin Biochem. 2005; 38: 997-1008). Assignment and calculation of the compounds of interest in chromatographic runs of tissue extracts were carried out at the proper wavelengths (206, 234 and 260 nm) by comparing retention times, absorption spectra and areas of peaks with those of peaks of chromatographic runs of freshly-prepared ultra-pure standard mixtures with known concentrations. […]

[1] = Acute phase 2: 15 mg/kg s.c. 30 min post-sTBI
[2] = Chronic phase: 15 mg/kg s.c. 3 days post-sTBI

How did the NO2 brain concentration [1] turn out when sodium salt of dextran sulfate [LMW-DS] was run?
The NO2 brain concentration was 226.40 ± 30.95^b nmol/g (w.w.).

And the NO3 brain concentration [1]?
Its NO3 brain concentration is 198.56 ± 25.93^e, i nmol/g (w.w.).

What about the UDP brain concentration [1] of the same substance?
Its UDP brain concentration is 40.38 ± 8.50^a, i nmol/g (w.w.).

What about the UDP-Gal brain concentration [1] of the same substance?
Its UDP-Gal brain concentration is 145.14 ± 27.76 nmol/g (w.w.).

What about the UDP-GalNac brain concentration [1] of the same substance?
Its UDP-GalNac brain concentration is 19.90 ± 3.12^a, e nmol/g (w.w.).

And the UDP-Glc brain concentration [1]?
The UDP-Glc brain concentration was 44.44 ± 7.59^j nmol/g (w.w.).

What about the UDP-GlcNac brain concentration [1] of the same substance?
The UDP-GlcNac brain concentration was 130.65 ± 28.41^a nmol/g (w.w.).

What about the UMP brain concentration [1] of the same substance?
Its UMP brain concentration is 138.73 ± 32.01^b nmol/g (w.w.).

And the UTP brain concentration [1]?
Its UTP brain concentration is 146.71 ± 32.68^e nmol/g (w.w.).

What about the acetyl-CoA brain concentration [1] of the same substance?
The acetyl-CoA brain concentration was 36.86 ± 4.11^e nmol/g (w.w.).

What about the adenine brain concentration [1] of the same substance?
Its adenine brain concentration is 58.16 ± 6.36^a, f nmol/g (w.w.).

What about the “ascorbic acid brain concentration” value [1] of the same substance?
Its value is 3512.58 ± 224.62^a, e nmol/g (w.w.).

What about the creatinine brain concentration [1] of the same substance?
The creatinine brain concentration was 37.27 ± 5.82^a, e, j nmol/g (w.w.).

What about the cytidine brain concentration [1] of the same substance?
Its cytidine brain concentration is 16.18 ± 4.21^e nmol/g (w.w.).

What about the cytosine brain concentration [1] of the same substance?
Its cytosine brain concentration is 15.70 ± 4.10^f nmol/g (w.w.).

And the guanine brain concentration [1]?
The guanine brain concentration was 4.73 ± 1.07 nmol/g (w.w.).

And the guanosine brain concentration [1]?
The guanosine brain concentration was 17.90 ± 3.24^j nmol/g (w.w.).

And the hypoxanthine brain concentration [1]?
Its hypoxanthine brain concentration is 12.90 ± 2.58^a, j nmol/g (w.w.).

What about the inosine brain concentration [1] of the same substance?
The inosine brain concentration was 85.52 ± 20.36^e nmol/g (w.w.).

And the malonyl-CoA brain concentration [1]?
Its malonyl-CoA brain concentration is 11.29 ± 2.27^b nmol/g (w.w.).

What about the “orotic acid brain concentration” value [1] of the same substance?
The value was 13.34 ± 3.65^a nmol/g (w.w.).

And the thymidine brain concentration [1]?
Its thymidine brain concentration is 0.49 ± 0.20^f nmol/g (w.w.).

What about the uracil brain concentration [1] of the same substance?
The uracil brain concentration was 19.40 ± 7.52^a, e nmol/g (w.w.).

And the “uric acid brain concentration” value [1]?
Its value is 19.17 ± 2.15^a, h, i nmol/g (w.w.).

And the uridine brain concentration [1]?
The uridine brain concentration was 63.02 ± 9.66^b, e nmol/g (w.w.).

And the xanthine brain concentration [1]?
Its xanthine brain concentration is 10.41 ± 2.11^f nmol/g (w.w.).

And the β-pseudouridine brain concentration [1]?
Its β-pseudouridine brain concentration is 13.26 ± 3.16^a, e, j nmol/g (w.w.).

And the ADO brain concentration [2]?
Its ADO brain concentration is 89.97 ± 12.98^a nmol/g (w.w.).

And the ADP brain concentration [2]?
The ADP brain concentration was 315.53 ± 46.53^a nmol/g (w.w.).

What about the ADP-ribose brain concentration [2] of the same substance?
The ADP-ribose brain concentration was 173.94 ± 8.45^a nmol/g (w.w.).

And the AMP brain concentration [2]?
Its AMP brain concentration is 90.01 ± 21.24^a nmol/g (w.w.).

And the ATP brain concentration [2]?
Its ATP brain concentration is 1381.03 ± 212.64^a nmol/g (w.w.).

What about the CDP brain concentration [2] of the same substance?
Its CDP brain concentration is 23.55 ± 6.45^a nmol/g (w.w.).

What about the “CDP choline brain concentration” value [2] of the same substance?
The value was 8.37 ± 2.19 nmol/g (w.w.).

And the CMP brain concentration [2]?
The CMP brain concentration was 20.51 ± 3.73^a, f nmol/g (w.w.).

What about the CTP brain concentration [2] of the same substance?
Its CTP brain concentration is 25.23 ± 2.93^a, f nmol/g (w.w.).

What about the CoA-SH brain concentration [2] of the same substance?
Its CoA-SH brain concentration is 27.58 ± 6.24^f nmol/g (w.w.).

What about the GDP brain concentration [2] of the same substance?
The GDP brain concentration was 173.05 ± 28.68^a, e nmol/g (w.w.).

And the “GDP glucose brain concentration” value [2]?
The value was 43.85 ± 5.06^b nmol/g (w.w.).

What about the GMP brain concentration [2] of the same substance?
Its GMP brain concentration is 148.56 ± 31.21^a nmol/g (w.w.).

What about the GSH brain concentration [2] of the same substance?
The GSH brain concentration was 2608.67 ± 358.07^a, e nmol/g (w.w.).

What about the GSSG brain concentration [2] of the same substance?
Its GSSG brain concentration is 231.08 ± 44.34^b, f nmol/g (w.w.).

What about the GTP brain concentration [2] of the same substance?
Its GTP brain concentration is 290.92 ± 34.68^a, f nmol/g (w.w.).

And the IMP brain concentration [2]?
The IMP brain concentration was 99.29 ± 13.82^a nmol/g (w.w.).

What about the MDA brain concentration [2] of the same substance?
Its MDA brain concentration is 11.62 ± 3.90^a, e nmol/g (w.w.).

And the NAA brain concentration [2]?
Its NAA brain concentration is 6375.36 ± 974.12^a, e nmol/g (w.w.).

And the NADH brain concentration [2]?
Its NADH brain concentration is 11.78 ± 3.32^e nmol/g (w.w.).

And the NADPH brain concentration [2]?
Its NADPH brain concentration is 7.34 ± 2.65^f nmol/g (w.w.).

And the “NADP^+ brain concentration” value [2]?
Its value is 16.44 ± 2.66^a, f nmol/g (w.w.).

What about the “NAD^+ brain concentration” value [2] of the same substance?
The value was 301.13 ± 29.90^a nmol/g (w.w.).

What about the NO2 brain concentration [2] of the same substance?
Its NO2 brain concentration is 217.67 ± 55.04^a nmol/g (w.w.).

And the NO3 brain concentration [2]?
The NO3 brain concentration was 241.27 ± 18.84^e nmol/g (w.w.).

And the UDP brain concentration [2]?
The UDP brain concentration was 57.40 ± 5.88^a, f nmol/g (w.w.).

And the UDP-Gal brain concentration [2]?
The UDP-Gal brain concentration was 122.29 ± 12.15 nmol/g (w.w.).

What about the UDP-GalNac brain concentration [2] of the same substance?
Its UDP-GalNac brain concentration is 21.84 ± 2.80^a, e nmol/g (w.w.).

What about the UDP-Glc brain concentration [2] of the same substance?
The UDP-Glc brain concentration was 35.79 ± 3.45^b nmol/g (w.w.).

And the UDP-GlcNac brain concentration [2]?
Its UDP-GlcNac brain concentration is 129.42 ± 15.88^b nmol/g (w.w.).

What about the UMP brain concentration [2] of the same substance?
Its UMP brain concentration is 103.11 ± 29.79 nmol/g (w.w.).

And the UTP brain concentration [2]?
The UTP brain concentration was 136.80 ± 33.25^f nmol/g (w.w.).

What about the acetyl-CoA brain concentration [2] of the same substance?
The acetyl-CoA brain concentration was 35.68 ± 6.55^e nmol/g (w.w.).

And the adenine brain concentration [2]?
Its adenine brain concentration is 52.94 ± 8.59^a, f nmol/g (w.w.).

And the “ascorbic acid brain concentration” value [2]?
Its value is 3375.03 ± 856.41^a, e nmol/g (w.w.).

What about the creatinine brain concentration [2] of the same substance?
The creatinine brain concentration was 51.25 ± 10.17^a, f nmol/g (w.w.).

What about the cytidine brain concentration [2] of the same substance?
The cytidine brain concentration was 14.71 ± 2.83^e nmol/g (w.w.).

What about the cytosine brain concentration [2] of the same substance?
Its cytosine brain concentration is 15.58 ± 2.50^b, f nmol/g (w.w.).

And the guanine brain concentration [2]?
Its guanine brain concentration is 5.31 ± 1.04^b nmol/g (w.w.).

And the guanosine brain concentration [2]?
The guanosine brain concentration was 28.87 ± 7.60^a, f nmol/g (w.w.).

What about the hypoxanthine brain concentration [2] of the same substance?
Its hypoxanthine brain concentration is 17.97 ± 4.49^a nmol/g (w.w.).

What about the inosine brain concentration [2] of the same substance?
The inosine brain concentration was 105.81 ± 25.57^f nmol/g (w.w.).

What about the malonyl-CoA brain concentration [2] of the same substance?
Its malonyl-CoA brain concentration is 10.00 ± 1.95^b nmol/g (w.w.).

And the “orotic acid brain concentration” value [2]?
Its value is 12.05 ± 1.50^a nmol/g (w.w.).

And the thymidine brain concentration [2]?
The thymidine brain concentration was 0.71 ± 0.11 nmol/g (w.w.).

What about the uracil brain concentration [2] of the same substance?
The uracil brain concentration was 16.57 ± 2.99^a, f nmol/g (w.w.).

And the “uric acid brain concentration” value [2]?
Its value is 27.77 ± 3.60^a nmol/g (w.w.).

What about the uridine brain concentration [2] of the same substance?
The uridine brain concentration was 63.28 ± 3.37^f nmol/g (w.w.).

What about the xanthine brain concentration [2] of the same substance?
Its xanthine brain concentration is 9.35 ± 0.83^f nmol/g (w.w.).

And the β-pseudouridine brain concentration [2]?
Its β-pseudouridine brain concentration is 18.62 ± 2.80^a nmol/g (w.w.).
